From patent US20090263410A1, “USE OF TGF-B1 INHIBITOR PEPTIDES IN THE PREPARATION OF AN IMMUNE RESPONSE MODULATING AGENT” (Proyecto De Biomedicina Cima, S.L., priority 2005, published 2009)
“Also recorded” adds a separate entry of the source.

What was measured:
CT26 cells [1] = assay: Pulmonary metastasis model (intravenous CT26), survival; type: in vivo, BALB/c mice; settings: 5×10^5 CT26 i.v. on day 10; 50 μg AH1 in FIA s.c. day 0; p144 50 μg i.p. alternate days, days 4-20 or 10-20
Description: It is speculated that the neutralization of TGF-β1, once the immune response has been induced, could have a beneficial effect on the evolution thereof.
It is known from previous experience that immunization with only DTc AH1 produced a certain delay in the appearance of tumours after the intravenous administration of CT26 cells. For this reason, in a survival experiment, the inclusion of p144 was compared at different times after immunization with AH1. Thus, the animals in group (i) just received the administration of CT26 cells, the animal groups (ii), (iii) and (iv) were immunized on day 0 by subcutaneous route with 50 μg of AH1 in FIA (Freund's incomplete adjuvant) and they were then administered 5×10^5 CT26 cells by intravenous route on day 10. Group (iii) further received 50 μg of p144 in 500 μl of PS (physiological serum) by intraperitoneal route on alternate days between days 4 and 20. Group (iv), as with group (iii), received 50 μg of p144 in 500 μl of PS by intraperitoneal route on alternate days, only between days 10 and 20.

CT26 cells [2] = assay: Protection against growth of CT26 cells after immunization with AH1 + LVQ mixtures; type: in vivo, BALB/c mice; settings: mice protected/total; immunization mixtures in Freund's incomplete adjuvant; 500,000 CT26 cells subcutaneous
Description: […] is a peptide which is presented by the MHC-II on the surface of the presenting cell, and a DTc is a peptide which is presented by MHC-I on the surface of the presenting cell and in tumour cells. It is known that the joint immunization of a DTc (AH1 peptide) and a DTh (LVQ peptide), both peptides coming from the gp70 protein of the tumour antigen expressed by CT26 cells, was capable of protecting against the subcutaneous growth of 500,000 CT26 tumour cells. Since TGF-β1 is important in the immune response induction process, we wanted to study the effect of peptide p144 on the induction of the response responsible for protection against the growth of CT26 cells. As is indicated in Table 1, three groups of BALB/c mice were immunized with the following mixtures of Freund's incomplete adjuvant: (i) with AH1 LVQ, (ii) with AH1+LVQ+p144 and (iii) just with Freund's incomplete adjuvant.

CT26 cells [3] = assay: Tumour growth of subcutaneous CT26 in AH1-immunized mice treated with peptides; type: in vivo, balb-c mice
Method: GROUPS: 4 groups of 7 female balb-c mice, of 6 weeks old/group.
AH1+FIA s.c.+p144 (50 μg i.p./dose/mouse) AH1+FIA s.c.+p17(1-11) (50 μg i.p./dose/mouse) DESIGN: AH1+FIA: […]; Peptides: from day −6 on alternate days until day 10: Tumour model volume: Each 3 days from day 10 to day 41. Challenge on day 0 with CT26 (500000 cells/mouse s.c. in the flank).
REDUCTION IN THE MEAN TUMOUR VOLUME BY GROUPS TREATED WITH PEPTIDES: The effect of peptides p144 and p17(1-11)Am was studied in a tumour progression model. In this model, mice were immunized with 50 μg of AH1 10 days before the administration of 5×10^5 CT26 cells. In order to verify the effect of blocking the TGF-β1 on the protection against CT tumour cells, another two groups of mice were treated on alternate days by intraperitoneal route between days 6 and 10 (50 μg/mouse/48 h) with peptides p144 and p17(1-11)Am. […] This protection reached 100% of the animals in the case of p144 (FIG. 16).

p144: peptide inhibiting TGF-β1 whose amino acid sequence corresponds to SEQ ID NO: 1 (TSLDASIIWAMMQN; Synthetic Construct from human TGB-Beta1 type III receptor.Domain730-743)
survival / mortality (CT26 cells [1]): reinforces the survival effect
Protection level against the growth of CT26 cells (CT26 cells [2]): negative effect on protection
tumour growth (CT26 cells [3]; 50 μg/mouse/48 h i.p. between days 6 and 10, s.c. CT26 on day 0, AH1 immunization 10 days before): protection against tumour growth; also recorded: delay tumour growth
protection against tumour growth, share of animals (CT26 cells [3]; measured on day 42 after subcutaneous administration of tumour cells): 100%
